Patent publication US20030134901A1, “Lipoxin compounds and their use in treating cell proliferative disorders” (priority 1993, published 2003)

What was measured:
[1] = system: PMA-treated HL-60 cells; assay: Lipoxin metabolism / bio-half-life assay with phorbol ester-treated HL-60 cells; type: in vitro ADME, human; settings: at times up to two hours
Method: HL-60 cells were purchased from American Type Culture Collection (Rockville, Md.), and other cell culture reagents were from GIBCO (Grand Island, N.Y.). Versene (EDTA) was from Whittaker Bioproducts (Walkersville, Md.). Synthetic 11,12-acetylenic LXA4 methyl ester and LXs were from Cascade Biochemical (Reading, U.K.). 15(S)-15-m-PGE1, PGE1, and 5-HETE were from Cayman Chemical Co. (Ann Arbor, Mich.). [11,12-^3H]LXA4 was prepared from 11,12-acetylenic LXA4 using Lindlar catalyst as a custom tritiation (NET-259, lot 0 2793-275, New England Nuclear, Boston, Mass.). Tritiated products were isolated using RP-HPLC (Fiore et al. (1992) J. Biol. Chem. 267:16168; Serhan, C. N. (1990) Meth. Enzymol. 187:167). Methoxyamine and NAD were from Sigma Chemical Company (St. Louis, Mo.). Manganese dioxide and Adams reagent were from Aldrich Chemical Co. (Milwaukee, Wis.).
Human PMN were obtained from healthy volunteers by gradient centrifugation of heparinized fresh venous blood (Böyum, A. ([…]) Scand. J. Clin. Lab. Invest. 21:77). HL-60 cells were seeded in RPMI supplemented with penicillin (100 U/ml), streptomycin (100 μ/ml), fetal bovine serum (10%) (Hyclone, Logan, Utah) and incubated (37° C. with 5% CO2 atmosphere) in plastic 250 ml flasks. Individual flasks containing […] HL-60 cells/ml were incubated in the presence or absence of phorbol 12-myristate 13-acetate (PMA) (10 or 16 nM, 24-27 h) and adherence was monitored for induction of macrophage-like phenotype as in Collins, S. J. (1987) Blood 70:1233. […]
Incubations with eicosanoids were stopped with cold methanol containing either PGB2 or 5-HETE as internal standards (5-HETE was used when 15-oxo-ETE was quantified). […] Formation of 15-oxo-ETE by 100,000 g supernatants (cf. Agins, A. P. et al. (1987) Agents Actions 21:397; Xun, C-Q. et al.(1991) Biochem. J. 279:553; and Sok, D-E. et al. (1988) Biochem. Biophys. Res. Commun. 156:524) was quantified after RP-HPLC using an ODS column (4.6 mm×25 cm) eluted with methanol/H2O/acetic acid (70:30:0.01, v/v/v) monitored at 280 nm with a flow rate of 1 ml/min. […] On-line spectra were recorded using a diode array detector (Hewlett-Packard 1040M series II) equipped with HPLC^3D ChemStation software (DOS series). […]
The “bio-half-life” of compounds 1-8 was assessed using phorbol ester-treated human promyelocytic leukemia (HL-60) cells as described in Example 2. […]

[2] = system: neutrophil adhesion to endothelial cells; assay: Neutrophil adhesion assay; type: cell-based; settings: read-out: IC50, PMN adhesion triggered by LTB4 to human endothelial cells; triggered by leukotriene B4
Method: Several of the preferred LX analogs (shown structurally as compounds 1 through 8 above) were prepared by total synthesis as described in Example 1. Following preparation and isolation of these compounds via HPLC, compounds were first assessed to determine whether they retain biological activity using the neutrophil adhesion assay and epithelial cell transmigration assays (as described in Nash, S et al., (1987) J. Clin. Invest. 80:1104-1113; Nash, S et al., (1991) J. Clin. Invest. 87: 1474-1477; Parkos, C. A. et al., (1991) J. Clin. Invest. 88:1605-1612; Parkos, C. A. et al. (1992) J. Cell. Biol. 117:757-764; Madara J. L. et al., (1992) J. Tiss. Cult. Meth. 14:209-216).

CCCCCC(C)(O)C=CC=CC=CC=CC(O)C(O)CCCC(=O)O (centres unmarked) [compound 2, 15-methyl-LXA4]
recovery in the incubation medium (bio-half-life) [1]: quantitatively recovered
IC50 [2]: ~1 nM
